Assay results taken from US20160220569A1, “CDK4/6 Inhibitor Dosage Formulations For The Protection Of Hematopoietic Stem And Progenitor Cells During Chemotherapy” (G1 Therapeutics, Inc., priority 2015, published 2016).
Read-outs that look alike come from different tables or passages of the source.

Test: 14-day oral gavage toxicokinetic study in rats
Format: in vivo
Conditions: rat, plasma, po; for concentration at 0.5 h / concentration at 1 h / concentration at 2 h / concentration at 4 h / concentration at 8 h / concentration at 12 h / concentration at 24 h / concentration at […]: rats; for half-life: read-out: t½ (converted)
Experimental: Plasma was obtained from blood samples collected from rats in a composite sampling scheme, with 3 samples collected per sex, per dose, at each target collection time, as illustrated in Table 21 to Table 25. Samples were collected from the vehicle control group on Day 1 and Day 14 at 3 hour after administration. […] Blood samples were collected in tubes containing K3EDTA as an anticoagulant and placed on ice until processed to plasma via centrifugation. Samples were stored frozen at −80° C. until shipment to the bioanalytical laboratory for analysis.
The following parameters were determined:
Cmax: Maximum observed plasma concentration (ng/mL).
A value of 0 ng/mL was assigned to all values below the lower limit of quantitation (BLQ, <10.0 ng/mL).
AUC(0-inf): Area under the plasma concentration vs. time curve extrapolated from 0 to infinity (ng*h/mL), calculated as AUC(0-t)+AUC(t-inf) where AUC(t-inf) is calculated as last measurable concentration (CLast) divided by ke, where ke is the elimination rate constant determined by linear regression of the last three analytically measured points on the log plasma concentration vs. time curve. The selection criteria of the data points for inclusion in the calculation of ke required that at least three data points representing the terminal phase (after Tmax) were regressed and that R2≧0.850 when rounded.
CL: Clearance (L/h/kg), calculated as the dose divided by AUC(0-t).
Vd: Volume of distribution (L/kg), calculated as dose divided by the product of ke and AUC(0-inf).
Vdss: Steady state volume of distribution (L/kg), calculated as clearance […] mean residence time, where mean residence time is calculated as the area under the first moment curve divided by AUC(0-t).
t½: Elimination half-life (h), calculated as ln(2)/ke, where ke is the elimination rate constant determined by linear regression. Half-life was defined as not determined if regression criteria (specified in AUC(0-inf) above) were not met.
Cmax/Dose: Normalized Cmax, calculated as Cmax divided by total dose.
AUC/Dose: Normalized AUC, calculated as AUC(0-t) divided by total dose.
ii. Statistical Analysis Mean and standard deviation (SD) were calculated in Watson. Values of BLQ were assigned a value of 0 ng/mL for mean calculations. Concentration values and derived TK parameters were reported to three significant figures.

[1] = female, 30 mg/kg, oral 30 mg/kg, Study Day 1, Female
[2] = female, 30 mg/kg, oral 30 mg/kg, Study Day 14, Female
[3] = male, 2 mg/kg, oral 2 mg/kg, Study Day 1, Male
[4] = male, 2 mg/kg, oral 2 mg/kg, Study Day 14, Male

## CN1CCN(c2ccc(Nc3ncc4cc5n(c4n3)C3(CCCCC3)CNC5=O)nc2)CC1 [Compound 1, 2′-((5-(4-methylpiperazin-1-yl)pyridin-2-yl)amino)-7′,8′-dihydro-6′H-spiro[cyclohexane-1,9′-pyrazino[1′,2′:1,5]pyrrolo[2,3-d]pyrimidin]-6′-one]
female, 30 mg/kg, Mean Compound 1 Plasma Concentration, oral 30 mg/kg, Day 1, 0.5 h, Female
  concentration at 0.5 h: 2160 ng/mL
female, 30 mg/kg, Mean Compound 1 Plasma Concentration, oral 30 mg/kg, Day 1, 1 h, Female
  concentration at 1 h: 2140 ng/mL
female, 30 mg/kg, Mean Compound 1 Plasma Concentration, oral 30 mg/kg, Day 1, 2 h, Female
  concentration at 2 h: 3090 ng/mL
female, 30 mg/kg, Mean Compound 1 Plasma Concentration, oral 30 mg/kg, Day 1, 4 h, Female
  concentration at 4 h: 2510 ng/mL
female, 30 mg/kg, Mean Compound 1 Plasma Concentration, oral 30 mg/kg, Day 1, 8 h, Female
  concentration at 8 h: 2470 ng/mL
female, 30 mg/kg, Mean Compound 1 Plasma Concentration, oral 30 mg/kg, Day 1, 12 h, Female
  concentration at 12 h: 1940 ng/mL
female, 30 mg/kg, Mean Compound 1 Plasma Concentration, oral 30 mg/kg, Day 1, 24 h, Female
  concentration at 24 h: 284 ng/mL
female, 30 mg/kg, Mean Compound 1 Plasma Concentration, oral 30 mg/kg, Day 1, […], Female
  concentration at […]: 92.9 ng/mL
female, 30 mg/kg, Mean Compound 1 Plasma Concentration, oral 30 mg/kg, Day 14, 0.5 h, Female
  concentration at 0.5 h: 1540 ng/mL
female, 30 mg/kg, Mean Compound 1 Plasma Concentration, oral 30 mg/kg, Day 14, 1 h, Female
  concentration at 1 h: 2230 ng/mL
female, 30 mg/kg, Mean Compound 1 Plasma Concentration, oral 30 mg/kg, Day 14, 2 h, Female
  concentration at 2 h: 2010 ng/mL
female, 30 mg/kg, Mean Compound 1 Plasma Concentration, oral 30 mg/kg, Day 14, 4 h, Female
  concentration at 4 h: 2320 ng/mL
female, 30 mg/kg, Mean Compound 1 Plasma Concentration, oral 30 mg/kg, Day 14, 8 h, Female
  concentration at 8 h: 1960 ng/mL
female, 30 mg/kg, Mean Compound 1 Plasma Concentration, oral 30 mg/kg, Day 14, 12 h, Female
  concentration at 12 h: 2290 ng/mL
female, 30 mg/kg, Mean Compound 1 Plasma Concentration, oral 30 mg/kg, Day 14, 24 h, Female
  concentration at 24 h: 322 ng/mL
female, 30 mg/kg, Mean Compound 1 Plasma Concentration, oral 30 mg/kg, Day 14, […], Female
  concentration at […]: 537 ng/mL
[1]
  AUC(0-inf): 43800 ng·h/mL
  AUC(0-t): 41800 ng·h/mL
  Cmax: 3090 ng/mL
  Tmax: 2 h
  half-life: 4.92 h
[2]
  AUC(0-inf): 43200 ng·h/mL
  AUC(0-t): 40600 ng·h/mL
  Cmax: 2320 ng/mL
  Tmax: 4 h
  half-life: 5.56 h
male, 2 mg/kg, Compound 1 Plasma Concentration, Male, Day 1, 1 h, daily oral 2 mg/kg (Group 7), individual animals
  concentration at 1 h: 59.1 ng/mL
male, 2 mg/kg, Compound 1 Plasma Concentration, Male, Day 1, 2 h, daily oral 2 mg/kg (Group 7), individual animals
  concentration at 2 h: 97.4 ng/mL
male, 2 mg/kg, Compound 1 Plasma Concentration, Male, Day 1, 4 h, daily oral 2 mg/kg (Group 7), individual animals
  concentration at 4 h: 122 ng/mL
male, 2 mg/kg, Compound 1 Plasma Concentration, Male, Day 1, 8 h, daily oral 2 mg/kg (Group 7), individual animals
  concentration at 8 h: 99 ng/mL
male, 2 mg/kg, Compound 1 Plasma Concentration, Male, Day 1, 12 h, daily oral 2 mg/kg (Group 7), individual animals
  concentration at 12 h: 51.9 ng/mL
male, 2 mg/kg, Compound 1 Plasma Concentration, Male, Day 14, 0.5 h, daily oral 2 mg/kg (Group 7), individual animals
  concentration at 0.5 h: 36.3 ng/mL
male, 2 mg/kg, Compound 1 Plasma Concentration, Male, Day 14, 2 h, daily oral 2 mg/kg (Group 7), individual animals
  concentration at 2 h: 84.3 ng/mL
male, 2 mg/kg, Compound 1 Plasma Concentration, Male, Day 14, 4 h, daily oral 2 mg/kg (Group 7), individual animals
  concentration at 4 h: 117 ng/mL
male, 2 mg/kg, Compound 1 Plasma Concentration, Male, Day 14, 8 h, daily oral 2 mg/kg (Group 7), individual animals
  concentration at 8 h: 68.7 ng/mL
male, 2 mg/kg, Compound 1 Plasma Concentration, Male, Day 14, 12 h, daily oral 2 mg/kg (Group 7), individual animals
  concentration at 12 h: 65.7 ng/mL
male, 2 mg/kg, Mean Compound 1 Plasma Concentration, oral 2 mg/kg, Day 1, 0.5 h, Male
  concentration at 0.5 h: 57.7 ng/mL
male, 2 mg/kg, Mean Compound 1 Plasma Concentration, oral 2 mg/kg, Day 1, 1 h, Male
  concentration at 1 h: 57.1 ng/mL
male, 2 mg/kg, Mean Compound 1 Plasma Concentration, oral 2 mg/kg, Day 1, 2 h, Male
  concentration at 2 h: 102 ng/mL
male, 2 mg/kg, Mean Compound 1 Plasma Concentration, oral 2 mg/kg, Day 1, 8 h, Male
  concentration at 8 h: 90.4 ng/mL
male, 2 mg/kg, Mean Compound 1 Plasma Concentration, oral 2 mg/kg, Day 1, 12 h, Male
  concentration at 12 h: 53.7 ng/mL
male, 2 mg/kg, Mean Compound 1 Plasma Concentration, oral 2 mg/kg, Day 14, 0.5 h, Male
  concentration at 0.5 h: 47 ng/mL
male, 2 mg/kg, Mean Compound 1 Plasma Concentration, oral 2 mg/kg, Day 14, 1 h, Male
  concentration at 1 h: 57.1 ng/mL
male, 2 mg/kg, Mean Compound 1 Plasma Concentration, oral 2 mg/kg, Day 14, 2 h, Male
  concentration at 2 h: 94.9 ng/mL
male, 2 mg/kg, Mean Compound 1 Plasma Concentration, oral 2 mg/kg, Day 14, 4 h, Male
  concentration at 4 h: 116 ng/mL
male, 2 mg/kg, Mean Compound 1 Plasma Concentration, oral 2 mg/kg, Day 14, 8 h, Male
  concentration at 8 h: 94.2 ng/mL
male, 2 mg/kg, Mean Compound 1 Plasma Concentration, oral 2 mg/kg, Day 14, 12 h, Male
  concentration at 12 h: 54 ng/mL
[3]
  AUC(0-t): 1390 ng·h/mL
  Cmax: 126 ng/mL
  Tmax: 4 h
  half-life: 5.32 h
[4]
  AUC(0-t): 1360 ng·h/mL
  Cmax: 116 ng/mL
  Tmax: 4 h
  half-life: 4.98 h
